Assay results taken from patent publication US9770526B2, “Absorbent article” (priority 2011, dated 2017).
Read-outs that look alike come from different tables or passages of the source.

Tests used:
[1] = Rewetting rate of sanitary napkin; details: Example 2: agent coated on top sheet only, about 5 g/m^2; horse EDTA blood
Method: (obtained by adding ethylenediaminetetraacetic acid (hereunder, “EDTA”) to horse blood to prevent coagulation) was dropped through the hole using a pipette (once), and after 1 minute, 3 g of horse EDTA blood at 37±1° C. was again added dropwise through the acrylic board hole with a pipette (twice).
After the second dropping of blood, the acrylic board was immediately removed and 10 sheets of filter paper (50 mm×35 mm) were placed on the location where the blood had been dropped, and then a weight was placed thereover to a pressure of 30 g/cm^2. After 1 minute, the filter paper was removed and the “rewetting rate” was calculated by the following formula. Rewetting rate (%)=100×(filter paper mass after test−initial filter paper mass)/6

[2] = Absorbent body migration rate; details: Example 2: agent coated on top sheet only, about 5 g/m^2; horse EDTA blood
Method: In addition to the rewetting rate evaluation, the “absorbent body migration rate” was also measured as the time until migration of blood from the top sheet to the absorbent body after the second dropping of blood. The absorbent body migration rate is the time from […].

[3] = Water solubility in 100 g of water at 25° C.
Source text: As used herein, the term “solubility” in regard to water solubility includes cases where the sample completely dissolves in deionized water to form a homogeneous mixture, and cases where the sample is completely emulsified. As used herein, “completely” means that no mass of the sample remains in the deionized water.

[4] = Surface tension of blood containing blood modifying agent (pendant drop method); parameters: species or system sheep; details: Amount 0.10 mass %; measuring temperature 35° C.
Method: The surface tension of blood containing a blood modifying agent was measured by the pendant drop method, using a Drop Master500 contact angle meter by Kyowa Interface Science Co., Ltd. The surface tension was measured after adding a prescribed amount of blood modifying agent to sheep defibrinated blood, and thoroughly shaking. The measurement was accomplished automatically with a device, and the surface tension γ was determined by the following formula (see FIG. 8). γ=g×ρ×(de)^2×1/H The density ρ was measured at the temperatures listed in Table 6, according to JIS K 2249-1995, “Density test methods and density/mass/volume conversion tables”, “5. Vibrating density test method”. The measurement was accomplished using a DA-505 by Kyoto Electronics Co., Ltd.

Row | Compound | Water solubility [3] [g] | Rewetting rate (%) [1] [%] | Absorbent body migration rate [2] [s] | also measured
1 | CCCCCCCC(=O)OCC(COC(=O)CCCCCCC)OC(=O)CCCCCCC [No. 2-8, Glycerin and fatty acid triester with octanoic acid (C8) as the entire fatty acid portion] | – | 0.3 | 3 | Water solubility ([3]; in 100 g of water at 25° C., 24 hours, visual): <0.05 g
2 | CCCCCCCCOC(=O)CCCCC(=O)OCCCCCCCC [No. 2-16, Dioctyl adipate] | – | 1.7 | 6 | –
3 | CCCCCCCCCCCCOC(=O)CCCCCCCCCCC [No. 2-17, Ester of dodecanoic acid (C12) and dodecyl alcohol (C12)] | – | 1.8 | 5 | Surface tension (mN/m) [4]: 58.8 mN/m
4 | CCCCCCCCCCCCCC(=O)OCCCCCCCCCCCC [No. 2-18, Ester of tetradecanoic acid (C14) and dodecyl alcohol (C12)] | – | 1.8 | 4 | –
5 | CCCCCCCCCCCC(=O)OCC(O)CO (stereo not drawn) [No. 2-31, lauric acid monoglyceride] | – | 6.2 | – | –
6 | Glycerin and fatty acid diester with octanoic acid as the fatty acid [No. 2-12] | – | 4.2 | 9 | –
7 | Glycerin and fatty acid triester with 2-ethylhexanoic acid (CO as the entire fatty acid portion [No. 2-9] | – | 2.0 | 3 | –
8 | Isopropyl citrate [No. 2-34] | – | 12.2 | 5 | –
9 | Polypropylene glycol [No. 2-35] | – | – | – | Water solubility (g) [3]: 0.05< g

Continued, in another order:

Row | Water solubility [3] [g] | Compound | Rewetting rate (%) [1] [%] | Absorbent body migration rate [2] [s] | also measured
10 | <0.05 | CCCCC(CC)C(=O)OCC(C)(C)COC(=O)C(CC)CCCC (stereo not drawn) [No. 2-15, Neopentylglycol di-2-ethylhexanoate] | 2.0 | 5 | –
11 | <0.05 | Polybutylene glycol [No. 2-23] | – | – | –
12 | <0.05 | Polyoxybutylenepolyoxypropylene glycol [No. 2-24] | – | – | –
13 | <0.05 | Polypropylene glycol [No. 2-19] | – | – | –
14 | <0.05 | Polypropylene glycol [No. 2-20] | – | – | –
15 | <0.05 | Polypropylene glycol [No. 2-21] | – | – | –
16 | <0.05 | Polypropylene glycol [No. 2-22] | – | – | –
